Test results: ChEMBL document CHEMBL4837240 (J Med Chem, 2021)
Activity calls are given as the source filed them. The calls are words filed in the database; no cut-off is given here.

Experiments:
[1] = tested on: MDA-MB-231; experiment: Anticancer activity against human MDA-MB-231 cells assessed as cell viability incubated for 48 hrs by MTT assay; settings: MDA-MB-231, 48 h
[2] = tested on: MDA-MB-436; experiment: Anticancer activity against human MDA-MB-436 cells assessed as cell viability incubated for 48 hrs by MTT assay; settings: MDA-MB-436, 48 h
[3] = molecular target: Platelet-derived growth factor receptor beta (Homo sapiens, UniProt P09619); experiment: Inhibition of PDGFRbeta (unknown origin)
[4] = molecular target: Mast/stem cell growth factor receptor Kit (Homo sapiens, UniProt P10721); experiment: Inhibition of c-Kit (unknown origin)
[5] = tested on: HDLEC; experiment: Inhibition of cell migration in VEGF-C-induced human dermal lymphatic endothelial cells assessed as cell migration at 100 nM incubated for 24 hrs by inverted microscopy based by scratch wound healing assay; assay type: functional, tissue-based
[6] = Antiproliferative activity against VEGF-D-induced human dermal lymphatic endothelial cells assessed as cell viability incubated for 48 hrs by CCK-8 assay; assay type: functional, tissue-based; settings: HDLEC
[7] = tested on: HDLEC; experiment: Antimigratory activity against VEGF-C-induced human dermal lymphatic endothelial cells assessed as cell migration at 100 nM incubated for 12 hrs by inverted microscopy based by transwell assay; assay type: functional, tissue-based
[8] = Toxicity in BALB/c mouse xenografted with MDA-MB-231 cells assessed as creatinine level in blood at 300 mg/kg, po; assay type: organism-based; settings: in vivo
[9] = Toxicity in BALB/c mouse xenografted with MDA-MB-231 cells assessed as change in lung at 300 mg/kg, po by hematoxylin and eosin staining based analysis; assay type: organism-based; settings: in vivo
[10] = Toxicity in BALB/c mouse xenografted with MDA-MB-231 cells assessed as ALT level in blood at 300 mg/kg, po; assay type: organism-based; settings: in vivo
[11] = Toxicity in BALB/c mouse xenografted with MDA-MB-231 cells assessed as change in liver at 25 mg/kg, po by hematoxylin and eosin staining based analysis; assay type: organism-based; settings: in vivo
[12] = Toxicity in BALB/c mouse xenografted with MDA-MB-231 cells assessed as change in kidney at 300 mg/kg, po by hematoxylin and eosin staining based analysis; assay type: organism-based; settings: in vivo
[13] = Toxicity in BALB/c mouse xenografted with MDA-MB-231 cells assessed as effect on body weight at 50 mg/kg, po; assay type: organism-based; settings: in vivo
[14] = Toxicity in BALB/c mouse xenografted with MDA-MB-231 cells assessed as uric acid level in blood at 300 mg/kg, po; assay type: organism-based; settings: in vivo
[15] = Toxicity in BALB/c mouse xenografted with MDA-MB-231 cells assessed as AST level in blood at 300 mg/kg, po; assay type: organism-based; settings: in vivo
[16] = tested on: HDLEC; experiment: Anti-lymphangiogenic activity against human dermal lymphatic endothelial cells assessed as inhibition of VEGF-C-mediated tube formation at 100 nM incubated for 12 hrs by inverted microscopy; assay type: functional, tissue-based
[17] = Toxicity in BALB/c mouse xenografted with MDA-MB-231 cells assessed as LDH level in blood at 300 mg/kg, po; assay type: organism-based; settings: in vivo
[18] = Toxicity in BALB/c mouse xenografted with MDA-MB-231 cells assessed as change in liver at 300 mg/kg, po by hematoxylin and eosin staining based analysis; assay type: organism-based; settings: in vivo
[19] = Antiproliferative activity against VEGF-C-induced human dermal lymphatic endothelial cells assessed as cell viability incubated for 48 hrs by CCK-8 assay; assay type: functional, tissue-based; settings: HDLEC
[20] = Toxicity in BALB/c mouse xenografted with MDA-MB-231 cells assessed as change in heart at 300 mg/kg, po by hematoxylin and eosin staining based analysis; assay type: organism-based; settings: in vivo
[21] = tested on: MDA-MB-231; experiment: Antimetastatic activity against human MDA-MB-231 cells injected into vein of BALB/c mouse lung metastatic model assessed as less lung metastatic nodules at 25 mg/kg, po once a day measured on day 21; assay type: functional, organism-based; settings: time 21.0 day
[22] = Toxicity in BALB/c mouse xenografted with MDA-MB-231 cells assessed as change in spleen at 300 mg/kg, po by hematoxylin and eosin staining based analysis; assay type: organism-based; settings: in vivo

Sequence of Mast/stem cell growth factor receptor Kit (P10721 whole entry): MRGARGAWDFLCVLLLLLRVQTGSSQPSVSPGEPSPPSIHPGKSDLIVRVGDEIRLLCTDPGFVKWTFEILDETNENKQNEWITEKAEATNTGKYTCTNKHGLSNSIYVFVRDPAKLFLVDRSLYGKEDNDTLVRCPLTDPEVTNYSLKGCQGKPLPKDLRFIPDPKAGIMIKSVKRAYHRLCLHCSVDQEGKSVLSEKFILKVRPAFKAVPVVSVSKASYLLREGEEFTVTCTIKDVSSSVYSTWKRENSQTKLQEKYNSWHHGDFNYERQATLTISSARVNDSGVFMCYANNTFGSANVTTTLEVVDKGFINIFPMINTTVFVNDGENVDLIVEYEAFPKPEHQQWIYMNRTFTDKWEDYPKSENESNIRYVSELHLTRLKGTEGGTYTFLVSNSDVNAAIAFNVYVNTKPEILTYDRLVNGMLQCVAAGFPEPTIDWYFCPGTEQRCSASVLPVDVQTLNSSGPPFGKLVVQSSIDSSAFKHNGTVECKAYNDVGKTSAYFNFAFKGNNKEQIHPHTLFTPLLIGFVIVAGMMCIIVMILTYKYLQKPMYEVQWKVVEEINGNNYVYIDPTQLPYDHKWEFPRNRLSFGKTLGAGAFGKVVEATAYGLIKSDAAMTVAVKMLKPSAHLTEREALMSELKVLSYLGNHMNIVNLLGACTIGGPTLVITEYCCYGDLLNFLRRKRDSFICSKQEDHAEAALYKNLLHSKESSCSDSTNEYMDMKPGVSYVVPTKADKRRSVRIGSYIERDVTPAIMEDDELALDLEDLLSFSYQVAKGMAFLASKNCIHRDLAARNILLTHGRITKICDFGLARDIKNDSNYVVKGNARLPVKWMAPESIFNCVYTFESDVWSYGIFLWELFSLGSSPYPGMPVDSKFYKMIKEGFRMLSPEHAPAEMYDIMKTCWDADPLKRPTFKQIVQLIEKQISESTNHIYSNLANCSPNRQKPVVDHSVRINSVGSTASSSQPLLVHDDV
Sequence of Platelet-derived growth factor receptor beta (P09619 whole entry): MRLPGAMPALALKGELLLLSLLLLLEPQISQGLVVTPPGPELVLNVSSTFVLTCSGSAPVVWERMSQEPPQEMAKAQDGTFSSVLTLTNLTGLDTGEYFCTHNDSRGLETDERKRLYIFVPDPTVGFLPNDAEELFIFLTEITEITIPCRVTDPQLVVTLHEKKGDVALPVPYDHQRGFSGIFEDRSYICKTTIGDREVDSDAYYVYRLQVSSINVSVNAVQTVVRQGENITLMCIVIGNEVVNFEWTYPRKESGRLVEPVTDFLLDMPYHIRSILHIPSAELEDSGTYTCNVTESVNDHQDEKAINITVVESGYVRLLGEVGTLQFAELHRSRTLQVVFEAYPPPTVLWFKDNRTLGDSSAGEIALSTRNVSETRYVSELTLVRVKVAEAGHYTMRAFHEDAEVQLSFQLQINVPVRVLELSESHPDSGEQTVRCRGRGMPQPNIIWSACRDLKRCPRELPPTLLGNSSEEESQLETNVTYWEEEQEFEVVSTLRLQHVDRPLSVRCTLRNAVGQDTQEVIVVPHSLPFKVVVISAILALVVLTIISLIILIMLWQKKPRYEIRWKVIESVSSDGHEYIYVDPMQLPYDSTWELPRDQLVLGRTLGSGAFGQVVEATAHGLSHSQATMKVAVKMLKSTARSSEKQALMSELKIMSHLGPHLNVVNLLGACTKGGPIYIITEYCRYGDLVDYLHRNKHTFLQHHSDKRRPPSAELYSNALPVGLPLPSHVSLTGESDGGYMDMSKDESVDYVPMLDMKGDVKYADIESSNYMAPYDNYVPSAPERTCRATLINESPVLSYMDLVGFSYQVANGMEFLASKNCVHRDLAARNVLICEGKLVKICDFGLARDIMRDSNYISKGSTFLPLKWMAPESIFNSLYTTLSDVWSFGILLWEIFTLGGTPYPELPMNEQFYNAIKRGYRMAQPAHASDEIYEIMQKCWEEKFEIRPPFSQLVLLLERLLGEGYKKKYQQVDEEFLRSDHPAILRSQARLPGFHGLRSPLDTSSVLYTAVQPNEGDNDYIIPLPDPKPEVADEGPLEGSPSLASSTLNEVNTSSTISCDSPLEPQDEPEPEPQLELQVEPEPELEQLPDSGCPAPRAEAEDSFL

SMILES | IC50 [1] [µM] | IC50 [2] [µM] | other results
C=CS(=O)(=O)N1CCN(c2ncnc3sc(-c4ccc(N5CCN(C)CC5)cc4)cc23)[C@@H](C)C1 | 6.18 | 6.92 | –
C=CS(=O)(=O)N1CCN(c2ncnc3sc(-c4ccc(C(F)(F)F)cc4)cc23)CC1 | 6.41 | 7.08 | –
COc1ccccc1NC(=O)N1CCN(c2ncnc3sc(-c4ccc(N5CCN(C)CC5)cc4)cc23)CC1 | 23.2 | 26.3 | –
CNC(=O)c1cc(COc2nnc(Nc3ccc(Cl)cc3)c3ccoc23)ccn1 [TELATINIB] | – | – | IC50 [3]: 0.015 µM; IC50 [4]: 0.001 µM
C=CS(=O)(=O)N1CCN(c2ncnc3sc(-c4ccc(C#N)cc4)cc23)CC1 | 8.05 | 9.17 | –
C=CS(=O)(=O)N1CCN(c2ncnc3sc(-c4cc(Br)cnc4F)cc23)CC1 | 24.1 | 28.4 | –
C=CS(=O)(=O)N1CCN(c2nc(OC[C@H]3CCCN3C)nc3sc(-c4ccc(OC)nc4)cc23)CC1 | 3.56 | 4.98 | –
C=CS(=O)(=O)N1CCN(c2nc(OCC3CCCCN3C)nc3sc(-c4ccc(C#N)cc4)cc23)CC1 (centres undefined) | 3.18 | 4.08 | –
CCS(=O)(=O)N1CCN(c2nc(OC[C@H]3CCCN3C)nc3sc(-c4ccc(C(=O)N5CCN(C)CC5)cc4)cc23)CC1 | 4.2 | 3.44 | –
CN1CCN(c2ccc(-c3cc4c(N5CCN(C(=O)Nc6ccccc6)CC5)ncnc4s3)cc2)CC1 | 7.59 | 7.09 | –
C=CS(=O)(=O)N1CCN(c2ncnc3sc(-c4ccccc4)cc23)CC1 | 54.2 | 21.1 | –
COc1ccc(NC(=O)N2CCN(c3ncnc4sc(-c5ccc(N6CCN(C)CC6)cc5)cc34)CC2)cc1 | 20.9 | 30.1 | –
CC(C)c1cccc(C(C)C)c1NC(=O)N1CCN(c2ncnc3sc(-c4ccc(N5CCN(C)CC5)cc4)cc23)CC1 | 8.43 | 11.3 | –
C=CS(=O)(=O)N1CCN(c2nc(OC[C@H]3CCCN3C)nc3sccc23)CC1 | > 50 | > 50 | –
C=CS(=O)(=O)N1CCN(c2ncnc3sc(-c4ccc(OC)nc4)cc23)CC1 | 9.27 | 11.9 | –
C=CS(=O)(=O)N1CCN(c2ncnc3sc(C4=CCCCC4)cc23)CC1 | > 50 | > 50 | –
C=CS(=O)(=O)N1CCN(c2ncnc3sc(-c4cnn(Cc5ccccc5)c4)cc23)CC1 | 19.1 | 18.3 | –
C=CS(=O)(=O)N1CCN(c2ncnc3sc(-c4cccs4)cc23)CC1 | 34.1 | 39 | –
CN1CCN(c2ccc(-c3cc4c(N5CCN(C(=O)Nc6ccccc6F)CC5)ncnc4s3)cc2)CC1 | 10.3 | 14.3 | –
C=CS(=O)(=O)N1CCN(c2ccn3ncc(-c4ccc(N5CCOCC5)cc4)c3n2)CC1 | 42.3 | 16.2 | –
CN1CCN(c2ccc(-c3cc4c(N5CCN(C(=O)Nc6cccc(F)c6)CC5)ncnc4s3)cc2)CC1 | 13.2 | 18.3 | –
CN1CCN(c2ccc(-c3cc4c(N5CCN(C(=O)Nc6ccc(C#N)cc6)CC5)ncnc4s3)cc2)CC1 | 3.93 | 5.01 | –
C=CS(=O)(=O)N1CCN(c2ncnc3ccc(-c4ccccc4)cc23)CC1 | 47.9 | 23.4 | –
C=CS(=O)(=O)N1CCN(c2nc(OC[C@H]3CCCN3C)nc3sc(-c4ccc(C#N)cc4)cc23)CC1 | 3.01 | 2.29 | –
C=CS(=O)(=O)N1CCN(c2ncnc3sc(-c4cccc5ncccc45)cc23)CC1 | 21 | 25.9 | –
C=CS(=O)(=O)N1CCN(c2ncnc3sc(-c4ccc(C(=O)N5CCN(C)CC5)cc4)cc23)CC1 | 8.65 | 9.66 | –
CN1CCN(c2ccc(-c3cc4c(N5CCN(S(=O)(=O)/C=C/c6ccccc6)CC5)ncnc4s3)cc2)CC1 | 5.9 | 8.67 | –

SMILES | IC50 [1] [µM] | IC50 [2] [µM] | other results
C=CS(=O)(=O)N1CCN(c2ccnc3ccc(-c4ccccc4)cc23)CC1 | 25.4 | 25.3 | –
CCn1c(N)c(C(=O)NC)c(=O)c2ccc(C#C[C@@](C)(O)COC)nc21 | > 50 | > 50 | Activity [5]: Active; IC50 [6]: 0.72 µM; Activity [7]: Active; Activity [8]: Toxic; Activity [9]: Toxic; Activity [10]: Toxic; Activity [11]: Toxic; Activity [12]: Toxic; Activity [13]: Toxic; Activity [14]: Toxic; Activity [15]: Toxic; Activity [16]: Active; Activity [17]: Toxic; Activity [18]: Toxic; IC50 [19]: 0.307 µM; Activity [20]: Toxic; Activity [21]: Active; Activity [22]: Toxic
C=CS(=O)(=O)N1CCN(c2nc(OC[C@H]3CCCN3C)nc3sc(-c4ccc(N5CCN(C)CC5)cc4)cc23)CC1 | 0.76 | 0.54 | –
C=CS(=O)(=O)N1CCN(c2ncnc3sc(-c4ccc(OC)cc4)cc23)CC1 | 29.9 | 28.4 | –
C=CS(=O)(=O)N1CCN(c2nc(OC[C@H]3CCCN3C)nc3sc(-c4ccc(N5CCN(C)CC5)cc4)cc23)[C@@H](C)C1 | 2.88 | 1.92 | –
CN1CCN(c2ccc(-c3cc4c(N5CCN(S(=O)(=O)N6CCCCC6)CC5)ncnc4s3)cc2)CC1 | 8.13 | 7.57 | –
CN1CCN(c2ccc(-c3cc4c(N5CCN(S(=O)(=O)C6CC6)CC5)ncnc4s3)cc2)CC1 | 11.5 | 10.6 | –
C=CC(=O)N1CCN(c2nc(OC[C@H]3CCCN3C)nc3sc(-c4ccc(C(=O)N5CCN(C)CC5)cc4)cc23)CC1 | 5.39 | 12.2 | –
CN1CCN(c2ccc(-c3cc4c(N5CCN(S(=O)(=O)c6ccccc6)CC5)nc(OCC5CCCCN5C)nc4s3)cc2)CC1 (centres undefined) | 4.42 | 10.7 | –
C=CS(=O)(=O)N1CCN(c2ncnc3sc(-c4ccc(N5CCOCC5)cc4)cc23)CC1 | 18.4 | 17.7 | –
CN1CCN(c2ccc(-c3cc4c(N5CCN(C(=O)Nc6ccc(F)cc6F)CC5)ncnc4s3)cc2)CC1 | 11.4 | 20.2 | –
CCS(=O)(=O)N1CCN(c2ncnc3sc(-c4ccc(N5CCN(C)CC5)cc4)cc23)CC1 | 7.33 | 10.6 | –
CN1CCN(c2ccc(-c3cc4c(N5CCN(C(=O)Nc6ccc(OC(F)(F)F)cc6)CC5)ncnc4s3)cc2)CC1 | 4.6 | 6.25 | –
C=CS(=O)(=O)N1CCN(c2ncnc3sc(-c4ccnc(Cl)c4)cc23)CC1 | 27.7 | 30.1 | –
C=CS(=O)(=O)N1CCN(c2ccn3ncc(-c4ccccc4)c3n2)CC1 | 38.3 | 19.5 | –
C=CS(=O)(=O)N1CCN(c2ncnc3sc(-c4cccc5ccccc45)cc23)CC1 | 23.7 | 28.1 | –
C=CS(=O)(=O)N1CCN(c2ncnc3sc(-c4cn(S(=O)(=O)c5ccccc5)c5ccccc45)cc23)CC1 | 40.4 | 38 | –
C=CS(=O)(=O)N1CCN(c2ncnc3sc(-c4cn(C)nc4C(F)(F)F)cc23)CC1 | 10.4 | 15.1 | –
CN1CCN(c2ccc(-c3cc4c(N5CCN(C(=O)Nc6cc(C(F)(F)F)ccc6F)CC5)ncnc4s3)cc2)CC1 | 9.09 | 8.84 | –
C=CS(=O)(=O)N1CCN(c2ncnc3sc(-c4ccc(N5CCN(C)CC5)cc4)cc23)CC1 | 7.55 | 8.76 | –
C=CS(=O)(=O)N1CCN(c2ncnc3sc(-c4ccc(F)nc4)cc23)CC1 | 16 | 17.5 | –
C=CS(=O)(=O)N1CCN(c2ncnc3sc(-c4c(C)noc4C)cc23)CC1 | 28.2 | 34.6 | –
CN1CCN(c2ccc(-c3cc4c(N5CCN(C(=O)Nc6ccc(Cl)cc6)CC5)ncnc4s3)cc2)CC1 | 5.44 | 9.27 | –
C=CS(=O)(=O)N1CCN(c2nc(OC[C@H]3CCCN3C)nc3sc(-c4ccc(C(=O)N5CCN(C)CC5)cc4)cc23)[C@@H](C)C1 | 3.33 | 1.53 | –
CCCNC(=O)N1CCN(c2ncnc3sc(-c4ccc(N5CCN(C)CC5)cc4)cc23)CC1 | 8.33 | 12.4 | –
C=CS(=O)(=O)N1CCN(c2nc(OC[C@H]3CCCN3C)nc3sc(-c4ccc(C(=O)N5CCN(C)CC5)cc4)cc23)CC1 | 4.2 | 3.44 | –
